Activity, EC50 and inhibition data for one compound are collected here from ChEMBL document CHEMBL4673218, “Kojyl cinnamate esters are peroxisome proliferator-activated receptor α/γ dual agonists” (Bioorg Med Chem, 2018).

Experiment [1] addresses T1, PPAR alpha/gamma (Homo sapiens) (UniProt P37231+Q07869). The experiment is described as follows: Agonist activity at PPARalpha/PPARgamma in human AT-MSC cells assessed as upregulation of HMGCR mRNA at 10 uM incubated for 3 days by qRT-PCR analysis. In kind it is cell-based. Conditions: Adipose tissue derived mesenchymal stem cell, filed as agonist, time 3.0 day.
In experiment [2] the target is T1, PPAR alpha/gamma (Homo sapiens). The experiment in a line: Agonist activity at PPARalpha/PPARgamma in human AT-MSC cells assessed as upregulation of FABP4 mRNA at 10 uM incubated for 3 days by qRT-PCR analysis. Format: cell-based. The settings on record: Adipose tissue derived mesenchymal stem cell, filed as agonist, time 3.0 day. (In qPCR the cycle at which signal appears reflects the starting amount.)

The target is the same in experiment [3]. The experiment is described as follows: Agonist activity at PPARalpha/PPARgamma in human AT-MSC cells assessed as upregulation of adiponectin mRNA at 10 uM incubated for 3 days by qRT-PCR analysis. In kind it is cell-based. The settings on record: Adipose tissue derived mesenchymal stem cell, filed as agonist, time 3.0 day.
Experiment [4] concerns the target T2, Oxysterols receptor LXR-alpha (Homo sapiens) (UniProt Q13133).
T2 sequence (whole entry): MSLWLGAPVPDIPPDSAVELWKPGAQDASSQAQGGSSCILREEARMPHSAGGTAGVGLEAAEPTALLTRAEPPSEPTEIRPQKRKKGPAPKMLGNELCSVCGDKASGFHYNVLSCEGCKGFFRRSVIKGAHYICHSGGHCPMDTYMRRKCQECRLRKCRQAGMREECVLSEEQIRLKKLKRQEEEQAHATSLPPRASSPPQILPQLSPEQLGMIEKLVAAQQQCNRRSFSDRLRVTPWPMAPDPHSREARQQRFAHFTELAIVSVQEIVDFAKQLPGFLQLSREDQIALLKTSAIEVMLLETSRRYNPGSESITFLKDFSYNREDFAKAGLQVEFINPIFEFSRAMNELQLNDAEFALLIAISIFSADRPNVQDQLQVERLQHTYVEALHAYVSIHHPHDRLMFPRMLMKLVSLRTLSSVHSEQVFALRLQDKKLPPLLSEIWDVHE
The experiment is described as follows: Binding affinity to human LXRalpha at 30 uM by competitive ligand binding based TR-FRET assay.

For experiment [5], the target named is T3, Glucocorticoid receptor (Homo sapiens) (UniProt P04150).
T3 sequence (whole entry): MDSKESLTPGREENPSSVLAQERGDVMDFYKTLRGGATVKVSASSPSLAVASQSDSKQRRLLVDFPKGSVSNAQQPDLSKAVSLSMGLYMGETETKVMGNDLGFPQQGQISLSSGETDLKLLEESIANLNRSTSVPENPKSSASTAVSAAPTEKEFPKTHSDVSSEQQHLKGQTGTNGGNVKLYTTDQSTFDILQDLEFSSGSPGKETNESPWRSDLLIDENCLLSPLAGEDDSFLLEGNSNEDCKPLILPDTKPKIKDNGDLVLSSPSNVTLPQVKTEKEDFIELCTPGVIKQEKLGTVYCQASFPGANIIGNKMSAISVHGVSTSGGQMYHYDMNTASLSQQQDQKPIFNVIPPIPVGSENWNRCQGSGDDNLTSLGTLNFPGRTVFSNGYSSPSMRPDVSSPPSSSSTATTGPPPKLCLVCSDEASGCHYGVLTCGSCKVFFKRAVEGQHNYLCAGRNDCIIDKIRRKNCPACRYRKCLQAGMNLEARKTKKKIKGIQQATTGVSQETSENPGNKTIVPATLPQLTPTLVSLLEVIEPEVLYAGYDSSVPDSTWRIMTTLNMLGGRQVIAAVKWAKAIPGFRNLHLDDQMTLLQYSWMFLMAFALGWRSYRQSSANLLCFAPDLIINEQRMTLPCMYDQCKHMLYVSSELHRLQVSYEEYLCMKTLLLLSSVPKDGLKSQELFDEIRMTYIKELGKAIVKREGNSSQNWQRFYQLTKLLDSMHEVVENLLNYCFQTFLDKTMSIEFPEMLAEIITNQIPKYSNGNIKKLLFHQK
The experiment in a line: Binding affinity to human glucocorticoid receptor at 30 uM by competitive binding based TR-FRET assay. (In TR-FRET formats the signal depends on donor and acceptor labels being close together.)

The target of experiment [6] is T4, Peroxisome proliferator-activated receptor gamma (Homo sapiens) (UniProt P37231).
T4 sequence (whole entry): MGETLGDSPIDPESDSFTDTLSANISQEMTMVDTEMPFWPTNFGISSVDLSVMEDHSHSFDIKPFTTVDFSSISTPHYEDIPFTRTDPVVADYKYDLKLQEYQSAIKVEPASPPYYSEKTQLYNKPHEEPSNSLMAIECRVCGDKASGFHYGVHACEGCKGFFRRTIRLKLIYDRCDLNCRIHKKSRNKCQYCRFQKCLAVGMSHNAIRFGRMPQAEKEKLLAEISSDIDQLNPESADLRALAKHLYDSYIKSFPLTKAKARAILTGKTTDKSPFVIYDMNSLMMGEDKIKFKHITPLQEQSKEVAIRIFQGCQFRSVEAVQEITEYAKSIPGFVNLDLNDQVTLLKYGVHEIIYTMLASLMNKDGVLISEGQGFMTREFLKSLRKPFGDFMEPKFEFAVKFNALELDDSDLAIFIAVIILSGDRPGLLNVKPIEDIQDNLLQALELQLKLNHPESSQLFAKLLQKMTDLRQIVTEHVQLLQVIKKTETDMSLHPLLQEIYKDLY
The experiment in a line: Binding affinity to human recombinant PPARgamma at 30 uM by competitive binding based TR-FRET assay relative to control. The settings on record: filed as agonist.

Experiment [7] in a line: Induction of adipogenesis in human AT-MSC assessed as adiponectin secretion in IDX medium incubated for 5 days by ELISA. Format: functional. Conditions: adipose tissue derived mesenchymal stem cell. (ELISA stands for enzyme-linked immunosorbent assay.)
Experiment [8] concerns Adipose tissue derived mesenchymal stem cell. The experiment is described as follows: Induction of adipogenesis in human AT-MSC cells assessed as increase in lipid droplet at 30 uM in IDX medium incubated for 5 days by Oil Red O staining based inverted phase microscopy relative to IDX control. In kind it is functional. Conditions: time 5.0 day.
For experiment [9], the system named is NHEK. The experiment in a line: Inhibition of UVB-induced MMP1 level in human NHEK cells at 10 uM incubated for 24 hrs by ELISA. Format: functional, cell-based.
In experiment [10] the test system is NHEK. The experiment in a line: Inhibition of UVB-induced PTGS2 mRNA in human NHEK cells at 10 uM incubated for 24 hrs by qRT-PCR analysis. In kind it is functional, cell-based.
Experiment [11] addresses T1, PPAR alpha/gamma (Homo sapiens). The experiment in a line: Agonist activity at PPARalpha/PPARgamma in human NHEK cells assessed as upregulation of FASN mRNA at 10 uM incubated for 3 days by qRT-PCR analysis. In kind it is cell-based. Conditions: time 3.0 day.
Experiment [12] shares this target. The experiment in a line: Agonist activity at PPARalpha/PPARgamma in human NHEK cells assessed as upregulation of ACACB mRNA at 10 uM incubated for 3 days by qRT-PCR analysis. Format: cell-based. The settings on record: time 3.0 day.
Experiment [13] has the same target. The experiment is described as follows: Agonist activity at PPARalpha/PPARgamma in human NHEK cells assessed as upregulation of HMGCR mRNA at 10 uM incubated for 3 days by qRT-PCR analysis. Conditions: time 3.0 day. In kind it is cell-based.
The target is the same in experiment [14]. The experiment is described as follows: Agonist activity at PPARalpha/PPARgamma in human NHEK cells assessed as upregulation of SCD1 mRNA at 10 uM incubated for 3 days by qRT-PCR analysis. In kind it is cell-based. Conditions: filed as agonist, time 3.0 day.
Experiment [15] shares this target. The experiment in a line: Agonist activity at PPARalpha/PPARgamma in human NHEK cells assessed as upregulation of FADS2 mRNA at 10 uM incubated for 3 days by qRT-PCR analysis. Format: cell-based. The settings on record: filed as agonist, time 3.0 day.
Experiment [16] shares this target. The experiment in a line: Agonist activity at PPARalpha/PPARgamma in human AT-MSC cells assessed as upregulation of HMGCS2 mRNA at 10 uM incubated for 3 days by qRT-PCR analysis. Format: cell-based. The settings on record: Adipose tissue derived mesenchymal stem cell, filed as agonist, time 3.0 day.

SMILES strings stand for the structures. Active and inactive are the calls of the source. The rule behind the calls is not given here.

T1 sequence (Q07869 whole entry, looked up, one chain of several): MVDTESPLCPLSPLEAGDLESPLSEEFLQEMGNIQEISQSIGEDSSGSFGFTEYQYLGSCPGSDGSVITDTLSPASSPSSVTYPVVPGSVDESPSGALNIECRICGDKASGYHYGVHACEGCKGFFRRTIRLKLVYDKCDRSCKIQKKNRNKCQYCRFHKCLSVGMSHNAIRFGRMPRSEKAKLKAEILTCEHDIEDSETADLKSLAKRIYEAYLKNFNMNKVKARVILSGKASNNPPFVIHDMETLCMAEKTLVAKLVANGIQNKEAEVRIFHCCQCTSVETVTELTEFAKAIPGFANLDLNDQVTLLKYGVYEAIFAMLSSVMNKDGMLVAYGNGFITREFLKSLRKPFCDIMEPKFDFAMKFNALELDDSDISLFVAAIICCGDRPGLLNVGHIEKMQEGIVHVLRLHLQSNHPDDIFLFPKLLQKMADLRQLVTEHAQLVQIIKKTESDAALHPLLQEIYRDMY

For the compound `COc1ccc(OC)c(/C=C/C(=O)OCc2cc(=O)c(O)co2)c1`, the result in experiment [1], in experiment [2], in experiment [3], in experiment [8], in experiment [14] and in [15] was Active. Besides, in experiment [16], the outcome was Active. Also, the result in [4], in experiment [5], in experiment [11], in [12] and in [13] was inactive. Further, the Activity in experiment [6] worked out at 77%. In [7], the 50% effective concentration (EC50) was determined as 7.6 µM. For the same compound, the inhibition entry with NHEK [9] and in the experiment with NHEK [10] was “Active” throughout.

What is called EC50 is the concentration at which the effect is half-maximal.
